According to patent US8192962B2, “Processes for detecting toxic substances” (Daikin Industries, Ltd., priority 2001, dated 2012):

Test system: Transport facilitation protein genes
Test: DNA chip mRNA expression in yeast, transport facilitation protein genes (Table 5)
Type: cell-based, Saccharomyces cerevisiae S288C
Summary of the method: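 S. cerevisiae S288C grown at 25° C. in YPD to log phase, then exposed 2 h to a toxicant at a growth-inhibiting, non-lethal concentration; untreated cells as control. Poly(A) mRNA reverse-transcribed with Cy3-dUTP or Cy5-dUTP, hybridized >12 h at 65° C. to whole-genome yeast DNA chip; value = fluorescence ratio treated/untreated.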

Question: Which results are given for `N#Cc1c(Cl)c(Cl)c(Cl)c(C#N)c1Cl` [(9), 2,4,5,6-tetrachloro-1,3-benzenedicarbonitrile]?
Answer: The level of expressed mRNA in the presence of chemical substance/The level of expressed mRNA in the absence of chemical substance (yeast gene YBL030C): 0.4; The level of expressed mRNA in the presence of chemical substance/The level of expressed mRNA in the absence of chemical substance (yeast gene YBL099W): 0.9; The level of expressed mRNA in the presence of chemical substance/The level of expressed mRNA in the absence of chemical substance (yeast gene YBR052C): 2.3; The level of expressed mRNA in the presence of chemical substance/The level of expressed mRNA in the absence of chemical substance (yeast gene YBR068C): 0.8; The level of expressed mRNA in the presence of chemical substance/The level of expressed mRNA in the absence of chemical substance (yeast gene YBR127C): 0.6; The level of expressed mRNA in the presence of chemical substance/The level of expressed mRNA in the absence of chemical substance (yeast gene YBR132C): 0.8; The level of expressed mRNA in the presence of chemical substance/The level of expressed mRNA in the absence of chemical substance (yeast gene YBR207W): 1.7; The level of expressed mRNA in the presence of chemical substance/The level of expressed mRNA in the absence of chemical substance (yeast gene YBR293W): 5.5; The level of expressed mRNA in the presence of chemical substance/The level of expressed mRNA in the absence of chemical substance (yeast gene YBR294W): 5.2; The level of expressed mRNA in the presence of chemical substance/The level of expressed mRNA in the absence of chemical substance (yeast gene YBR295W): 1.2; The level of expressed mRNA in the presence of chemical substance/The level of expressed mRNA in the absence of chemical substance (yeast gene YBR298C): 0.3; The level of expressed mRNA in the presence of chemical substance/The level of expressed mRNA in the absence of chemical substance (yeast gene YCL025C): 0.3; The level of expressed mRNA in the presence of chemical substance/The level of expressed mRNA in the absence of chemical substance (yeast gene YCL038C): 1.1; The level of expressed mRNA in the presence of chemical substance/The level of expressed mRNA in the absence of chemical substance (yeast gene YCR024C-A): 0.2; The level of expressed mRNA in the presence of chemical substance/The level of expressed mRNA in the absence of chemical substance (yeast gene YCR037C): 0.6; The level of expressed mRNA in the presence of chemical substance/The level of expressed mRNA in the absence of chemical substance (yeast gene YCR098C): 1.4; The level of expressed mRNA in the presence of chemical substance/The level of expressed mRNA in the absence of chemical substance (yeast gene YDL128W): 0.5; The level of expressed mRNA in the presence of chemical substance/The level of expressed mRNA in the absence of chemical substance (yeast gene YDL198C): 1.9; The level of expressed mRNA in the presence of chemical substance/The level of expressed mRNA in the absence of chemical substance (yeast gene YDL210W): 1.2; The level of expressed mRNA in the presence of chemical substance/The level of expressed mRNA in the absence of chemical substance (yeast gene YDL245C): 0.4; The level of expressed mRNA in the presence of chemical substance/The level of expressed mRNA in the absence of chemical substance (yeast gene YDR038C): 1.4; The level of expressed mRNA in the presence of chemical substance/The level of expressed mRNA in the absence of chemical substance (yeast gene YDR039C): 1.8; The level of expressed mRNA in the presence of chemical substance/The level of expressed mRNA in the absence of chemical substance (yeast gene YDR086C): 0.6; The level of expressed mRNA in the presence of chemical substance/The level of expressed mRNA in the absence of chemical substance (yeast gene YDR270W): 2.9; The level of expressed mRNA in the presence of chemical substance/The level of expressed mRNA in the absence of chemical substance (yeast gene YDR298C): 1.0; The level of expressed mRNA in the presence of chemical substance/The level of expressed mRNA in the absence of chemical substance (yeast gene YDR342C): 0.2; The level of expressed mRNA in the presence of chemical substance/The level of expressed mRNA in the absence of chemical substance (yeast gene YDR343C): 0.3; The level of expressed mRNA in the presence of chemical substance/The level of expressed mRNA in the absence of chemical substance (yeast gene YDR345C): 0.2; The level of expressed mRNA in the presence of chemical substance/The level of expressed mRNA in the absence of chemical substance (yeast gene YDR387C): 1.4; The level of expressed mRNA in the presence of chemical substance/The level of expressed mRNA in the absence of chemical substance (yeast gene YDR497C): 0.4; The level of expressed mRNA in the presence of chemical substance/The level of expressed mRNA in the absence of chemical substance (yeast gene YEL027W): 0.9; The level of expressed mRNA in the presence of chemical substance/The level of expressed mRNA in the absence of chemical substance (yeast gene YEL063C): 0.8; The level of expressed mRNA in the presence of chemical substance/The level of expressed mRNA in the absence of chemical substance (yeast gene YEL065W): 0.1; The level of expressed mRNA in the presence of chemical substance/The level of expressed mRNA in the absence of chemical substance (yeast gene YER053C): 1.3; The level of expressed mRNA in the presence of chemical substance/The level of expressed mRNA in the absence of chemical substance (yeast gene YFL011W): 0.3; The level of expressed mRNA in the presence of chemical substance/The level of expressed mRNA in the absence of chemical substance (yeast gene YFL041W): 0.8; The level of expressed mRNA in the presence of chemical substance/The level of expressed mRNA in the absence of chemical substance (yeast gene YFL050C): 0.5; The level of expressed mRNA in the presence of chemical substance/The level of expressed mRNA in the absence of chemical substance (yeast gene YFL054C): 2.0; The level of expressed mRNA in the presence of chemical substance/The level of expressed mRNA in the absence of chemical substance (yeast gene YGL006W): 3.0; The level of expressed mRNA in the presence of chemical substance/The level of expressed mRNA in the absence of chemical substance (yeast gene YGL008C): 0.0; The level of expressed mRNA in the presence of chemical substance/The level of expressed mRNA in the absence of chemical substance (yeast gene YGL104C): 4.6; The level of expressed mRNA in the presence of chemical substance/The level of expressed mRNA in the absence of chemical substance (yeast gene YGL167C): 1.3; The level of expressed mRNA in the presence of chemical substance/The level of expressed mRNA in the absence of chemical substance (yeast gene YGL255W): 0.3; The level of expressed mRNA in the presence of chemical substance/The level of expressed mRNA in the absence of chemical substance (yeast gene YGR055W): 5.0; The level of expressed mRNA in the presence of chemical substance/The level of expressed mRNA in the absence of chemical substance (yeast gene YGR065C): 1.2; The level of expressed mRNA in the presence of chemical substance/The level of expressed mRNA in the absence of chemical substance (yeast gene YGR082W): 0.6; The level of expressed mRNA in the presence of chemical substance/The level of expressed mRNA in the absence of chemical substance (yeast gene YGR096W): 0.8; The level of expressed mRNA in the presence of chemical substance/The level of expressed mRNA in the absence of chemical substance (yeast gene YGR138C): 0.5; The level of expressed mRNA in the presence of chemical substance/The level of expressed mRNA in the absence of chemical substance (yeast gene YGR191W): 0.1; The level of expressed mRNA in the presence of chemical substance/The level of expressed mRNA in the absence of chemical substance (yeast gene YGR197C): 16.7; The level of expressed mRNA in the presence of chemical substance/The level of expressed mRNA in the absence of chemical substance (yeast gene YGR224W): 0.9
